Structures are written as SMILES.

The text below walks through data of patent publication US20260092074A1, “Annelated Pyridines as Steroidogenesis Inhibitors, Preparation Method and Use Thereof” (Guangzhou Vinnocent Pharmaceutical Limited, priority 2022, published 2026).

One test deals with T1, human CYP11B1 (Homo sapiens, UniProt P15538).
T1 construct: expressed in transfected cells
T1 sequence (P15538 25-503): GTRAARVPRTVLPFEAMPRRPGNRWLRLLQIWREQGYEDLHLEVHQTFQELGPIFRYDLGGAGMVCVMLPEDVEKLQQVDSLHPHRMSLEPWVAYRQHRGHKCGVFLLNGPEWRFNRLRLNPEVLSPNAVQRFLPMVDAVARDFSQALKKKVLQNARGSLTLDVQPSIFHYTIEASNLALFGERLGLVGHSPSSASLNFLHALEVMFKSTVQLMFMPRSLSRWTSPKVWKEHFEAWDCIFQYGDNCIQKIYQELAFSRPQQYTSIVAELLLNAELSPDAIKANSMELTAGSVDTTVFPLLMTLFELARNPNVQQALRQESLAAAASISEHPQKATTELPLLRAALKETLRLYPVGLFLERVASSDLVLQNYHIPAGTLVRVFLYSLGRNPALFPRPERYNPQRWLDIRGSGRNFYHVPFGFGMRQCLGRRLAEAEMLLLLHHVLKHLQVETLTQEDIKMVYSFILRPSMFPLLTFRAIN
Briefly: Inhibition of hCYP11B1 in transfected V79 cells. Type of test: cell-based. Particulars: hamster V79 cells expressing human CYP11B1; substrate 11-deoxycortisol 200 nM. A digest of the protocol:
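V79 hamster cells stably expressing human CYP11B1 and rat NADPH-P450 reductase were preincubated with compounds for 2 h. 11-Deoxycortisol (200 nM) was then added as substrate for 30 min before ethyl acetate quench. Substrate and product were quantified by LC-MS/MS or HPLC at 260 nm, and IC50 was derived from percent inhibition.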

Another test has as its target T2, human CYP11B2 (Homo sapiens, UniProt P19099).
T2 construct: expressed in transfected cells
T2 sequence (P19099 25-503): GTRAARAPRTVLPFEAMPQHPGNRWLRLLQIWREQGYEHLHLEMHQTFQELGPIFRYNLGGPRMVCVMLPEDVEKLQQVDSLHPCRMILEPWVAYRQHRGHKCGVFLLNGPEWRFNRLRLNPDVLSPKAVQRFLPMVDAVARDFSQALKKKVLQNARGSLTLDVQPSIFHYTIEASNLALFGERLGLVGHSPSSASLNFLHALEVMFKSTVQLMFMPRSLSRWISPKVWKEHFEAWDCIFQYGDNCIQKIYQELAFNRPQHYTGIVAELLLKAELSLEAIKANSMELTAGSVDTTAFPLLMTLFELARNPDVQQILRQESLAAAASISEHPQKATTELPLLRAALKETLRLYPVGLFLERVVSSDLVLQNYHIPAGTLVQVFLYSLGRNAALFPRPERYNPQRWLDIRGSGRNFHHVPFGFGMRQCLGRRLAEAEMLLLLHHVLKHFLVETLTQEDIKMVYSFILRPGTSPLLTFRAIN
Briefly: Inhibition of hCYP11B2 in transfected V79 cells. The test is classed as cell-based. Particulars: hamster V79 cells expressing human CYP11B2; substrate 11-deoxycorticosterone 200 nM. A digest of the protocol: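 Hamster V79 cells stably co-expressing human CYP11B2 and rat NADPH-P450 reductase were pre-incubated with compounds for 2 hours, then given 200 nM 11-deoxycorticosterone for 30 minutes before ethyl acetate quench. Substrate and product were quantified by LC-MS/MS or HPLC at 260 nm, and IC50 was derived from percent inhibition.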

`N#Cc1ccc(-c2cncc3c2SCCN3S(=O)(=O)c2ccc(Cl)cc2)cc1` [S15, 4-(4-((4-Chlorophenyl)sulfonyl)-3,4-dihydro-2H-pyrido[4,3-b][1,4]thiazin-8-yl)benzonitrile]: the half-maximal inhibitory concentration (IC50) (as a rule, the point on the concentration scale where inhibition reaches its midpoint) on human CYP11B1 was determined as 2.2 nM; against human CYP11B2 it was 0.05 nM.

Regarding `N#Cc1ccc(-c2cncc3c2SCCN3S(=O)(=O)c2cccc(C(F)(F)F)c2)cc1` [S16, 4-(4-((3-(Trifluoromethyl)phenyl)sulfonyl)-3,4-dihydro-2H-pyrido[4,3-b][1,4]thiazin-8-yl) benzonitrile], the IC50 on human CYP11B1 is 12 nM; at human CYP11B2 it was 1.05 nM.

Regarding `N#Cc1ccc(-c2cncc3c2SCCN3S(=O)(=O)c2ccc(C(F)(F)F)cc2)cc1` [S17, 4-(4-((4-(Trifluoromethyl)phenyl)sulfonyl)-3,4-dihydro-2H-pyrido[4,3-b][1,4]thiazin-8-yl) benzonitrile], the concentration for half-maximal inhibition (IC50) on human CYP11B1 came to 10.2 nM; on human CYP11B2, 0.4 nM.

`N#Cc1ccc(-c2cncc3c2SCCN3S(=O)(=O)c2cccc([N+](=O)[O-])c2)cc1` [S18, 4-(4-((3-Nitrophenyl)sulfonyl)-3,4-dihydro-2H-pyrido[4,3-b][1,4]thiazin-8-yl)benzonitrile]: the figures for the IC50 against human CYP11B1 and at human CYP11B2 were 2 nM and 0.1 nM, respectively.

Take `N#Cc1ccc(-c2cncc3c2SCCN3S(=O)(=O)c2ccc([N+](=O)[O-])cc2)cc1` [S19, 4-(4-((4-Nitrophenyl)sulfonyl)-3,4-dihydro-2H-pyrido[4,3-b][1,4]thiazin-8-yl)benzonitrile]: the half-inhibitory concentration (IC50) on human CYP11B1 was found to be 1.2 nM; on human CYP11B2, 0.1 nM.

For `N#Cc1ccc(-c2cncc3c2SCCN3S(=O)(=O)c2cccc(C#N)c2)cc1` [S20, 3-((8-(4-Cyanophenyl)-2,3-dihydro-4H-pyrido[4,3-b][1,4]thiazin-4-yl)sulfonyl)benzonitrile], the IC50 at human CYP11B1 is 3.1 nM; against human CYP11B2, 0.1 nM.

Regarding `N#Cc1ccc(-c2cncc3c2SCCN3S(=O)(=O)c2ccc(C#N)cc2)cc1` [S21, 4-((8-(4-Cyanophenyl)-2,3-dihydro-4H-pyrido[4,3-b][1,4]thiazin-4-yl)sulfonyl)benzonitrile], the concentration for half-maximal inhibition (IC50) against human CYP11B1 came to 15 nM; against human CYP11B2 it was 0.3 nM.

For `N#Cc1ccc(-c2cncc3c2SCCN3S(=O)(=O)c2cccc3ccccc23)cc1` [S22, 4-(4-(Naphthalen-1-ylsulfonyl)-3,4-dihydro-2H-pyrido[4,3-b][1,4]thiazin-8-yl)benzonitrile], the IC50 against human CYP11B1 came out at 51 nM; on human CYP11B2, 5.2 nM.

For the compound `N#Cc1ccc(-c2cncc3c2SCCN3S(=O)(=O)c2ccc3ccccc3c2)cc1` [S23, 4-(4-(Naphthalen-2-ylsulfonyl)-3,4-dihydro-2H-pyrido[4,3-b][1,4]thiazin-8-yl)benzonitrile], the IC50 was 1.9 nM at human CYP11B1 and 0.2 nM on human CYP11B2.

As to `N#Cc1ccc(-c2cncc3c2SCCN3S(=O)(=O)c2cccs2)cc1` [S24, 4-(4-(Thiophen-2-ylsulfonyl)-3,4-dihydro-2H-pyrido[4,3-b][1,4]thiazin-8-yl)benzonitrile], the IC50 against human CYP11B1 was found to be 1.1 nM; against human CYP11B2, 0.13 nM.

On to `N#Cc1ccc(-c2cncc3c2SCCN3S(=O)(=O)c2cccnc2)cc1` [S25, 4-(4-(Pyridin-3-ylsulfonyl)-3,4-dihydro-2H-pyrido[4,3-b][1,4]thiazin-8-yl)benzonitrile], for which the values for the IC50 at human CYP11B1 and against human CYP11B2 were 1.82 nM and 0.04 nM, respectively.

With `N#Cc1ccc(-c2cncc3c2SCCN3S(=O)(=O)c2cccc3cccnc23)cc1` [S26, 4-(4-(Quinolin-8-ylsulfonyl)-3,4-dihydro-2H-pyrido[4,3-b][1,4]thiazin-8-yl)benzonitrile], the half-inhibitory concentration (IC50) was found to be 28 nM against human CYP11B1 and 0.86 nM against human CYP11B2.

As to `COc1ccc(S(=O)(=O)N2CCSc3c(-c4cccc(C#N)c4)cncc32)cc1` [S27, 3-(4-((4-Methoxyphenyl)sulfonyl)-3,4-dihydro-2H-pyrido[4,3-b][1,4]thiazin-8-yl)benzonitrile], the 50% inhibitory concentration (IC50) against human CYP11B1 was 2.9 nM; at human CYP11B2, 0.7 nM.

As for `COc1ccc(S(=O)(=O)N2CCSc3c(-c4ccc(Cl)cc4)cncc32)cc1` [S28, 8-(4-Chlorophenyl)-4-((4-methoxyphenyl)sulfonyl)-3,4-dihydro-2H-pyrido[4,3-b][1,4]thia zine], the IC50 against human CYP11B1 was 1.8 nM; at human CYP11B2 it was 0.2 nM.

Turning to `COc1ccc(S(=O)(=O)N2CCSc3c(-c4cccc(Cl)c4)cncc32)cc1` [S29, 8-(3-Chlorophenyl)-4-((4-methoxyphenyl)sulfonyl)-3,4-dihydro-2H-pyrido[4,3-b][1,4]thia zine], the figures for the IC50 on human CYP11B1 and at human CYP11B2 were 7.3 nM and 1.5 nM, respectively.

On to `COc1ccc(S(=O)(=O)N2CCSc3c(-c4ccc(F)cc4)cncc32)cc1` [S30, 8-(4-Fluorophenyl)-4-((4-methoxyphenyl)sulfonyl)-3,4-dihydro-2H-pyrido[4,3-b][1,4]thia zine], for which the IC50 is 19 nM against human CYP11B1 and 1 nM at human CYP11B2.

Turning to `COc1ccc(S(=O)(=O)N2CCSc3c(-c4cccc(F)c4)cncc32)cc1` [S31, 8-(3-Fluorophenyl)-4-((4-methoxyphenyl)sulfonyl)-3,4-dihydro-2H-pyrido[4,3-b][1,4]thia zine], the IC50 at human CYP11B1 turned out to be 136 nM; against human CYP11B2, 5.9 nM.

Take `COc1ccc(S(=O)(=O)N2CCSc3c(-c4ccc(C(F)(F)F)cc4)cncc32)cc1` [S32, 4-((4-methoxyphenyl)sulfonyl)-8-(4-(trifluoromethyl)phenyl)-3,4-dihydro-2H-pyrido[4,3-b][1,4]thiazine]: the IC50 against human CYP11B1 turned out to be 468 nM; against human CYP11B2, 10.3 nM.

On to `COc1ccc(S(=O)(=O)N2CCSc3c(-c4ccc(F)c(C)c4)cncc32)cc1` [S33, 8-(4-Fluoro-3-methylphenyl)-4-((4-methoxyphenyl)sulfonyl)-3,4-dihydro-2H-pyrido[4,3-b][1,4]thiazine], for which the half-maximal inhibitory concentration (IC50) is 5.4 nM at human CYP11B1 and 0.09 nM against human CYP11B2.

As for `COc1ccc(S(=O)(=O)N2CCSc3c(-c4ccc(F)c(Cl)c4)cncc32)cc1` [S34, 8-(3-chloro-4-fluorophenyl)-4-((4-methoxyphenyl)sulfonyl)-3,4-dihydro-2H-pyrido[4,3-b][1,4]thiazine], the IC50 at human CYP11B1 was 13.4 nM; on human CYP11B2 it was 0.17 nM.

Turning to `COc1ccc(S(=O)(=O)N2CCSc3c(-c4ccc(C#N)c(F)c4)cncc32)cc1` [S35, 2-Fluoro-4-(4-((4-methoxyphenyl)sulfonyl)-3,4-dihydro-2H-pyrido[4,3-b][1,4]thiazin-8-yl) benzonitrile], the concentration for half-maximal inhibition (IC50) on human CYP11B1 was determined as 0.35 nM; at human CYP11B2, 0.12 nM.

As to `COc1ccc(S(=O)(=O)N2CCSc3c(-c4ccsc4)cncc32)cc1` [S36, 4-((4-Methoxyphenyl)sulfonyl)-8-(thiophen-3-yl)-3,4-dihydro-2H-pyrido[4,3-b][1,4]thiazine], the half-maximal inhibitory concentration (IC50) worked out at 30.4 nM at human CYP11B1 and 5.6 nM on human CYP11B2.

In the case of `COc1ccc(S(=O)(=O)N2CCSc3c(-c4cccs4)cncc32)cc1` [S37, 4-((4-Methoxyphenyl)sulfonyl)-8-(thiophen-2-yl)-3,4-dihydro-2H-pyrido[4,3-b][1,4]thiazine], the IC50 at human CYP11B1 is 84 nM; on human CYP11B2, 6 nM.

As to `COc1ccc(S(=O)(=O)N2CCSc3c(-c4ccco4)cncc32)cc1` [S38, 8-(Furan-2-yl)-4-((4-methoxyphenyl)sulfonyl)-3,4-dihydro-2H-pyrido[4,3-b][1,4]thiazine], the results for the IC50 on human CYP11B1 and against human CYP11B2 were 0.7 nM and 2.1 nM, respectively.

With `COc1ccc(S(=O)(=O)N2CCSc3c(-c4cn[nH]c4)cncc32)cc1` [S39, 4-((4-Methoxyphenyl)sulfonyl)-8-(1H-pyrazol-4-yl)-3,4-dihydro-2H-pyrido[4,3-b][1,4]thia zine], the 50% inhibitory concentration (IC50) is 137 nM against human CYP11B1 and 264 nM against human CYP11B2.

For `N#Cc1ccc(S(=O)(=O)N2CCSc3c(-c4cc5ccccc5o4)cncc32)cc1` [S40, 4-((8-(Benzofuran-2-yl)-2,3-dihydro-4H-pyrido[4,3-b][1,4]thiazin-4-yl)sulfonyl)benzonitrile], the IC50 was 657 nM against human CYP11B1 and 6.7 nM on human CYP11B2.

Take `N#Cc1ccc(S(=O)(=O)N2CCSc3c(-c4cc5cc(Cl)ccc5o4)cncc32)cc1` [S41, 4-((8-(5-Chlorobenzofuran-2-yl)-2,3-dihydro-4H-pyrido[4,3-b][1,4]thiazin-4-yl)sulfonyl) benzonitrile]: the IC50 is 99 nM at human CYP11B1 and 0.4 nM against human CYP11B2.
